Source: patent publication EP4553077A1 (Kinoteck Therapeutics Co., Ltd, priority 2022, dated 2024)

What was measured:
A204 cells = test: Proliferation inhibition, CCK-8 colorimetric method; type: cell-based; settings: 72 h
Description: (§1) CCK-8 (Bimake/B34304) colorimetric method was used to detect the in vitro proliferation inhibitory effect of compounds on suspended or adherent cells in this experiment. The specific experimental steps were as follows: • 1) Cell plating: SNU16 and A204 tumor cells (cells from Shanghai Institute of Organic Chemistry, Chinese Academy of Sciences) in the logarithmic growth phase were digested and centrifuged for trypan blue counting, and the cells were seeded into a transparent 96 well plate at a density of 4000 cells/100 µ 1/well. […] The test compound and control compound stock solution were diluted with the corresponding culture medium required for cell culture (with or without solvent DMSO) to obtain a series of working solutions, with concentrations of twice the final concentration. The solvent DMSO contents in each concentration group were consistent with that of the solvent control group. The final concentration of A204 cells started at 10 µM and was diluted twice.
(§2) Calculation of cell survival rate: Cell survival rate (%)=[(As-Ac)/(Ab-Ac)] × 100%] (As: experimental well; Ab: Solvent control well; Ac: Blank well).

SNU16 cells = test: as above; type: cell-based
Description: as §1, §2

Ba/F3-TEL-FGFR2 = Ba/F3-TEL-FGFR2 (Homo sapiens, UniProt P21802+P41212); test: Cell viability (proliferation inhibition) of Ba/F3 cells, CellTiter Glo; settings: read-out: Ba/F3 cell FGFR2 (IC50 nM), 72 h
Sequence of Ba/F3-TEL-FGFR2 (P21802 481-770 limits assumed, one chain of several): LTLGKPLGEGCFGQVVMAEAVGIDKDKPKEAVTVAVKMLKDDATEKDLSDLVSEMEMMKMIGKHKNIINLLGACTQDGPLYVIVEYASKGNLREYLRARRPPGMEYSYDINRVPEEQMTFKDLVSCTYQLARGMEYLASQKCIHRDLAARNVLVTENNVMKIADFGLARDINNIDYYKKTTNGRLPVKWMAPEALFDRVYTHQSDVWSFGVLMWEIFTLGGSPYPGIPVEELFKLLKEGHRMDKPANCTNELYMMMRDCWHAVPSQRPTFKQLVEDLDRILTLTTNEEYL

Ba/F3-TEL-FGFR1 = Ba/F3-TEL-FGFR1 (Homo sapiens, UniProt P11362+P41212); test: as above; settings: read-out: Ba/F3 cell FGFR1 (IC50 nM), 72 h
Sequence of Ba/F3-TEL-FGFR1 (P11362 478-767 limits assumed, one chain of several): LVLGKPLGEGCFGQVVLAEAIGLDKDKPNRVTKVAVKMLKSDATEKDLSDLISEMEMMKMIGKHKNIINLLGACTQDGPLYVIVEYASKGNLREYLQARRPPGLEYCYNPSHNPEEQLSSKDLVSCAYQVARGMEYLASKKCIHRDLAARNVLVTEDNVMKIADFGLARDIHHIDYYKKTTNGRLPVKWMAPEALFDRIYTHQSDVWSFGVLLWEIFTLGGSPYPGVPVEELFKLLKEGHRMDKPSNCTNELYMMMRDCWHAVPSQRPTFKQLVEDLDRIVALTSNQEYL

Ba/F3-TEL-FGFR3 = Ba/F3-TEL-FGFR3 (Homo sapiens, UniProt P22607+P41212); test: as above; settings: read-out: Ba/F3 cell FGFR3 (IC50 nM), 72 h
Sequence of Ba/F3-TEL-FGFR3 (P22607 472-761 limits assumed, one chain of several): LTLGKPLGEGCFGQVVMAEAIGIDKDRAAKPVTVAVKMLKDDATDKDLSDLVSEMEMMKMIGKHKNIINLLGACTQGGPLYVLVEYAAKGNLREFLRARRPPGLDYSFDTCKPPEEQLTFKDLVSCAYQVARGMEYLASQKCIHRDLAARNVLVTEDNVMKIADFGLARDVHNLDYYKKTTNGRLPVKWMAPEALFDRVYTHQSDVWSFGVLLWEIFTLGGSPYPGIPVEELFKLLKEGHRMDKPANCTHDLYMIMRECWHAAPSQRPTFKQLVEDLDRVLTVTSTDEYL

[1] = Pharmacokinetic test in rats; type: in vivo, male SD rats; settings: rat, plasma, oral gavage administration, 10 mg/kg
Description: Rat pharmacokinetic experiments were performed using male SD rats, 180-220g, provided by Beijing Vital River Laboratory Animal Technology Co., Ltd. 3 rats that were fasted overnight were taken, and administered orally by gavage (10 mg/kg). Blood samples were collected before administration, as well as 5, 15, 30 min and 1, 2, 4, 6, 8, 24 h after administration; another 3 rats were taken and administered intravenously (1 mg/kg), blood samples were collected before administration, as well as 5, 15, 30 min and 1, 2, 4, 6, 8, 24 h after administration. Blood sample was centrifuged at 6800g, 2-8 °C for 6 min, and plasma was collected, and stored at -80 °C. Plasma of each time point was taken, 10 times the amount of 50% methanol acetonitrile solution containing internal standard was added, and mixed by vortex for 5 min, centrifuged at 18000 rpm at 4 °C for 10 min, and the supernatant was taken directly for LC-MS/MS analysis. The main pharmacokinetic parameters were analyzed using WinNonlin8.2 software for non compartmental model analysis. Table 3: pharmacokinetic test in rats results of test compounds

| Compound | IC50 (A204 cells; Homo sapiens) | IC50 (SNU16 cells; Homo sapiens, SNU-16, 72 h) | IC50 (Ba/F3-TEL-FGFR2) | IC50 (Ba/F3-TEL-FGFR1) | IC50 (Ba/F3-TEL-FGFR3) | also measured |
| --- | --- | --- | --- | --- | --- | --- |
| C=C(C)C(=O)Nc1ccc(-c2c(-c3ccc(N=S4(=O)CCC4)c(Cl)c3)c3c(N)ncnc3n2C)c(F)c1 [Compound 104] | 1020 nM | 5.51 nM | 0.9 nM | 640 nM | – | – |
| C=C(C)C(=O)Nc1ccc(-c2c(-c3ccc(N=S4(=O)CCCC4)c(Cl)c3)c3c(N)ncnc3n2C)c(F)c1 [Compound 88, N-(4-(4-amino-5-(3-chloro-4-((1-oxidetetrahydro-1 λ^6-thiophene-1-ylidene)amino)phenyl) -7-methyl-7H-pyrrolo [2,3-d]pyrimidin-6-yl) -3-fluorophenyl) methacrylamide] | – | – | 1.5 nM | 561 nM | 216 nM | – |
| C=C(C)C(=O)Nc1ccc(-c2c(-c3ccc(N=S4(=O)CCCC4)c(F)c3)c3c(N)ncnc3n2C)c(C#N)c1 [Compound 26, N-(4-(4-amino-5-(3-fluoro-4-((1-oxotetrahydro-1 λ^6-thiophene-1-ylidene)amino)phenyl) -7-methyl-7H-pyrrolo [2,3-d]pyrimidin-6-yl) -3-cyanophenyl) methacrylamide] | 285 nM | 3.36 nM | 4.5 nM | – | 110 nM | – |
| C=C(C)C(=O)Nc1ccc(-c2c(-c3ccc(N=S4(=O)CCC4)c(F)c3)c3c(N)ncnc3n2C)c(Cl)c1 [Compound 74, N-(4-(4-amino-5-(3-fluoro-4-(1-oxo-1λ^6-thietan-1-imino)phenyl) -7-methyl-7H-pyrrolo[2,3-d]pyrimidin-6-yl)-3-chlorophenyl)methacrylamide] | 595 nM | 1.19 nM | 0.5 nM | 300 nM | – | – |
| C=C(C)C(=O)Nc1ccc(-c2c(-c3ccc(N=S4(=O)CCCCC4)c(F)c3)c3c(N)ncnc3n2C)c(F)c1 [Compound 7] | – | – | 2.4 nM | 627 nM | 545 nM | – |
| N-(4-(4-amino-7-methyl-5-(4-(1-oxotetrahydro-2H-1λ^6-thiopyran-1- imino) phenyl) -7H-pyrrolo [2,3-d] pyrimidin-6-yl) -3-fluorophenyl) methacrylamide [Compound 1] | – | – | 2.3 nM | 656 nM | 869 nM | IC50 (A204 cells): 1310 nM; IC50 (SNU16 cells; 72 h): 5.57 nM |
| C=C(F)C(=O)Nc1ccc(-c2c(-c3ccc(N=S4(=O)CCCCC4)cc3)c3c(N)ncnc3n2C)cc1 [Compound 68, N-(4-(4-amino-7-methyl-5-(4-((1-oxotetrahydro-2H-1 λ^6-thiopyran-1-ylidene)amino)phenyl)-7H-pyrrolo[2,3-d]pyrimidin-6-yl)phenyl)-2-fluoroacrylamide] | 267 nM | 1.65 nM | 0.5 nM | – | – | – |
| C=C(C)C(=O)Nc1ccc(-c2c(-c3ccc(Oc4nccc(C)n4)c(F)c3)c3c(N)ncnc3n2C)cc1 [Control compound I, reference compound] | 3220 nM | 13.2 nM | – | – | – | AUC(0-t) ([1]; male, SD): 606 ng·h/mL; Cmax ([1]; male, SD): 141 ng/mL; Tmax ([1]; male, SD): 40.2 min; half-life ([1]; male, SD): 51 min |
| C=C(C)C(=O)Nc1ccc(-c2c(-c3ccc(N=S(=O)(CC)CC)c(F)c3)c3c(N)ncnc3n2C)c(F)c1 [Compound 100] | – | – | 1.9 nM | 823 nM | 414 nM | – |
| C=C(C)C(=O)Nc1ccc(-c2c(-c3ccc(N=S(=O)(CC)CC)cc3)c3c(N)ncnc3n2C)c(Cl)c1 [Compound 102] | 502 nM | 2.63 nM | 0.6 nM | – | – | – |
| [2H]C([2H])([2H])n1c(-c2ccc(NC(=O)C(=C)C)cc2F)c(-c2ccc(N=S3(=O)CCCC3)c(F)c2)c2c(N)ncnc21 [Compound 94] | – | – | 1.1 nM | 625 nM | 205 nM | – |
| C=C(C)C(=O)Nc1ccc(-c2c(-c3ccc(N=S(=O)(N(C)C)C(F)(F)F)c(F)c3)c3c(N)ncnc3n2C)cc1 (stereo not shown) [Compound 48] | – | – | 0.9 nM | 625 nM | 577 nM | AUC(0-t) [1]: 883 ng·h/mL; Cmax [1]: 212 ng/mL; Tmax [1]: 49.8 min; half-life [1]: 206 min |
| [2H]C([2H])([2H])n1c(-c2cc(C)c(NC(=O)C(=C)C)cc2Cl)c(-c2ccc(N=S3(=O)CCCC3)c(F)c2)c2c(N)ncnc21 [Compound 90, N-(4-(4-amino-5-(3-fluoro-4-((1-tetrahydro-1λ^6-thiophene-1-ylidene)amino)phenyl) -7-(methyl-d3) -7H-pyrrolo [2,3-d]pyrimidin-6-yl) -5-chloro-2-methylphenyl) methacrylamide] | – | – | 3.6 nM | – | 174 nM | – |
| C=C(C)C(=O)Nc1ccc(-c2c(-c3ccc(N=S4(=O)CCC4)cc3)c3c(N)ncnc3n2C)c(F)c1 [Compound 8] | 618 nM | 1.34 nM | 0.7 nM | 600 nM | – | AUC(0-t) [1]: 630 ng·h/mL; Cmax [1]: 352 ng/mL; Tmax [1]: 15 min; half-life [1]: 109 min |
| [2H]C([2H])([2H])n1c(-c2ccc(NC(=O)C(=C)C)cc2F)c(-c2ccc(N=S3(=O)CCC3)c(F)c2)c2c(N)ncnc21 [Compound 97, N-(4-(4-amino-5-(3-fluoro-4-((1-oxo-1 λ^6-thiophene-1-ylidene)amino)phenyl) -7-(methyl-d3) -7H-pyrrole [2,3-d]pyrimidin-6-yl) -3-fluorophenyl) methacrylamide] | 764 nM | 2.66 nM | 1.9 nM | 480 nM | – | – |
| [2H]C([2H])([2H])n1c(-c2ccc(NC(=O)C(=C)C)cc2F)c(-c2ccc(N=S3(=O)C=CC=C3)cc2)c2c(N)ncnc21 [Compound 98, N-(4-(4-amino-7-(methyl-d3) -5-(4-((1-oxo-1 λ^6-thiophene-1-ylidene)amino)phenyl) -7H-pyrrolo [2,3-d]pyrimidin-6-yl) -3-fluorophenyl) methacrylamide] | 845 nM | 1.81 nM | 0.6 nM | 416 nM | – | – |
| C=C(C)C(=O)Nc1ccc(-c2c(-c3ccc(N=S4(=O)CCCC4)c(F)c3)c3c(N)ncnc3n2C)c(C)c1 [Compound 22, N-(4-(4-amino-5-(3-fluoro-4-((1-oxotetrahydro-1 λ^6-thiophene-1-ylidene)amino)phenyl) -7-methyl-7H-pyrrolo [2,3-d]pyrimidin-6-yl) -3-methylphenyl) methacrylamide] | 1610 nM | 4.97 nM | 2.7 nM | 717 nM | – | – |
